According to PMC9106665 (Communications Biology, 2022):
Substitutions are numbered along the chain they refer to. “And” between values parts separate entries of the source, which are not always exact repeats. Equal entries are not always repeated.

Assays:
DfrA1 [1] = format: biochemical, E. coli
From the text: (§1) using a nonlinear regression method in GraphPad Prism 9.2.0 software. To determine the turnover number (kcat) using the same model, the enzyme concentration (based on the protein concentration determined by Bradford assay) was constrained to a constant value and analyzed by the following equation (Eq. 3):3 Y=Et×kcat×X/(Km+X)

DfrA5 [2] = format: biochemical, E. coli
From the text: as §1

EcDHFR D27E = target: T1, EcDHFR D27E (Escherichia coli, UniProt P0ABQ4, D27E); assay: Steady-state kinetic measurements; format: biochemical; conditions: varied substrate 1 to 200 µM, 25 °C
T1 construct: using E. coli DHFR template previously synthesized by GeneScript; made in house; host or cells: E. coli BL21(DE3)
T1 sequence (P0ABQ4 1-159 D27E): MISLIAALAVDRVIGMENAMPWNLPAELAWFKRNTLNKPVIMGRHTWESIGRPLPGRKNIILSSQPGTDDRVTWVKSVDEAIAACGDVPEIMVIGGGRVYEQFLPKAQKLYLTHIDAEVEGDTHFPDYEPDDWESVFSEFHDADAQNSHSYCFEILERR
From the text: as §1

EcDHFR D27E/L28Q = target: T2, EcDHFR D27E/L28Q (Escherichia coli, UniProt P0ABQ4, D27E/L28Q); assay: Steady-state kinetic measurements; format: biochemical; conditions: varied substrate 1 to 200 µM, 25 °C
T2 construct: using E. coli DHFR template previously synthesized by GeneScript; made in house; host or cells: E. coli BL21(DE3)
T2 sequence (P0ABQ4 1-159 D27E/L28Q): T1 sequence (P0ABQ4 1-159 D27E) with L28Q
From the text: as §1

EcDHFR L28Q = target: T3, EcDHFR L28Q (Escherichia coli, UniProt P0ABQ4, L28Q); assay: Steady-state kinetic measurements; format: biochemical; conditions: varied substrate 1 to 200 µM, 25 °C
T3 construct: using E. coli DHFR template previously synthesized by GeneScript; made in house; host or cells: E. coli BL21(DE3)
T3 sequence (P0ABQ4 1-159 L28Q): T1 sequence (P0ABQ4 1-159 D27E) with E27D, L28Q
From the text: as §1

EcDHFR [3] = target: T4, EcDHFR (Escherichia coli, UniProt P0ABQ4); format: binding; conditions: binary complex, 10× molar excess of ligand
T4 construct: E. coli DHFR gene (UniProtKB:P0ABQ4) and dfrA1 gene (UniProtKB:A4GRC7) were synthesized and cloned in pET-41a (+) vector; made in house; host or cells: E. coli BL21(DE3)
Method: (§2) In all, 200 µg of purified enzyme was preincubated for 18 h without and with a 10× molar excess of the ligand(s) (NADPH, TMP or PLA) in 20 mM Hepes 7.5, 100 mM KCl, 5% glycerol, ±2.0% DMSO and 2 mM DTT buffer. […] Changes in intrinsic fluorescence intensity (measured ratio of absorbance at 350 nm over 330 nm) from tryptophan residues were used to calculate derivatives using the evaluation features provided by the Tycho instrument.

DfrA1 [4] = target: T5, DfrA1 (Escherichia coli, UniProt P00382); format: binding, E. coli; conditions: binary complex, 10× molar excess of ligand
T5 construct: dfrA1 gene (UniProtKB:A4GRC7) were synthesized and cloned in pET-41a (+) vector; made in house; host or cells: E. coli BL21(DE3)
T5 sequence (P00382 1-157): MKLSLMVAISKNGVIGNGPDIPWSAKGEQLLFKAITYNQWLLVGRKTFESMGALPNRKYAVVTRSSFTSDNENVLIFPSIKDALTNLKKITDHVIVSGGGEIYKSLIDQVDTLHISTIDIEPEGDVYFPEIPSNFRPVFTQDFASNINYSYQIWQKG
Method: as §2

EcDHFR [5] = target: T4, EcDHFR; assay: biochemical; format: binding
DfrA1 [6] = target: T5, DfrA1; assay: biochemical; format: binding, E. coli
DfrA5 [7] = target: T6, DfrA5 (Escherichia coli, UniProt P11731); assay: biochemical; format: binding, E. coli
DfrA5 [8] = target: T6, DfrA5; format: binding, E. coli; set-up: E. coli dfrA5 gene (UniProtKB:A0A4Y6L037) was synthesized and cloned in pET-24a (+) vector with the same restriction sites; 6xHis tag (C); made in house; host or cells: E. coli BL21(DE3); conditions: binary complex, 10× molar excess of ligand
Method: as §2, with “instrument. The inflection temperature (Ti) as a marker of protein structural integrity was determined by the first derivative of the signal (ratio of 350 nm/330 nm).” for “instrument.”

T6 sequence (P11731 whole entry): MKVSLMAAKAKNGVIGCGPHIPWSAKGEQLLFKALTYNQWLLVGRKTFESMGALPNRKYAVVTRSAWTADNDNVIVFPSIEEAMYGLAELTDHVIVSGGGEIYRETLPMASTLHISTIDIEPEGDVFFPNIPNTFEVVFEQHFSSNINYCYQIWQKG

NC(=O)C1=CN([C@@H]2O[C@H](COP(=O)(O)OP(=O)(O)OC[C@H]3O[C@@H](n4cnc5c(N)ncnc54)[C@H](OP(=O)(O)O)[C@@H]3O)[C@@H](O)[C@H]2O)C=CC1 [NADPH]
fold increase in KM compared to EcDHFR (DfrA1 [1]): 2 fold | fold increase in KM compared to EcDHFR (DfrA5 [2]): 3 fold | Km (EcDHFR D27E): 5.8 ± 0.9 µM | kcat (EcDHFR D27E): 5.9 ± 0.3 s⁻¹ | Km (EcDHFR D27E/L28Q): 11.1 ± 1.6 µM | kcat (EcDHFR D27E/L28Q): 3.8 ± 0.2 s⁻¹ | Km (EcDHFR L28Q): 7.6 ± 1.3 µM | kcat (EcDHFR L28Q): 4.4 ± 0.2 s⁻¹ | Ti 1 (EcDHFR [3]): 53.8 ± 0.4 °C | Ti 2 (EcDHFR [3]): 63.1 ± 1.3 °C | Δ1 (Ti shift vs apo) (EcDHFR [3]): 4.2 °C | Δ2 (Ti shift vs apo) (EcDHFR [3]): 2.9 °C | Ti (DfrA1 [4]): 56.5 ± 0.8 °C | Δ (Ti shift vs apo) (DfrA1 [4]): 6.7 °C | Kd (EcDHFR [5]; EcDHFR apo): 771 ± 145 nM | Kd (EcDHFR [5]; EcDHFR apo form, Fig. S5a titration): 661 nM | Kd (EcDHFR [5]; EcDHFR:TMP (preincubated with 1 µM TMP), titrant NADPH): 8 nM and 8.1 nM | Fold change in KD (EcDHFR [5]; NADPH KD ± Trimethoprim): 95.2 ± 50.3 | Kd (DfrA1 [6]; KD, DfrA1:TMP, titrant NADPH): 430 ± 95 nM | Kd (DfrA1 [6]; KD, DfrA1:UCP1228 (100 µM UCP1228), titrant NADPH): 289 ± 51 nM | Kd (DfrA1 [6]; KD, DfrA1 apo): 1650 ± 230 nM | Kd (DfrA1 [6]; KD, DfrA1 apo, series NADPH KD ± UCP1228): 1040 ± 106 nM | Kd (DfrA1 [6]; Kd, DfrA1 apo form (Fig. S8)): 1040 ± 110 nM | Kd (DfrA1 [6]; Kd, DfrA1 preincubated with 100 µM UCP1228, titrant NADPH (Fig. S8)): 290 nM | Fold change in KD (DfrA1 [6]; NADPH KD ± Trimethoprim): 4 and 3.8 ± 1.0 | Fold change in KD (DfrA1 [6]; NADPH KD ± UCP1228): 4 and 3.6 ± 0.7 | Kd (DfrA5 [7]; DfrA5:TMP, titrant NADPH): 1540 ± 380 nM | Kd (DfrA5 [7]; DfrA5:UCP1228 (100 µM UCP1228), titrant NADPH): 459 ± 157 nM | Kd (DfrA5 [7]; DfrA5 apo): 7470 ± 1670 nM | Kd (DfrA5 [7]; DfrA5 apo form (Fig. S8)): 6840 nM | Kd (DfrA5 [7]; DfrA5 apo, series NADPH KD ± UCP1228): 6840 ± 1610 nM | Kd (DfrA5 [7]; DfrA5 preincubated with 100 µM UCP1228, titrant NADPH (Fig. S8)): 450 nM | Fold change in KD (DfrA5 [7]; NADPH KD ± Trimethoprim): 5 and 4.9 ± 1.6 | Fold change in KD (DfrA5 [7]; NADPH KD ± UCP1228): 15 and 14.9 ± 6.2 | Ti (DfrA5 [8]): 69.2 ± 0.5 °C | Δ (Ti shift vs apo) (DfrA5 [8]): 2.9 °C
